We go through 3 molecules from patent US5710012A, “Salt of 6-carboxy-3-methylbenzothiazolone hydrazone hydrate in colorimetric determination of hydrogen peroxide” (ActiMed Laboratories, Inc., priority 1994, dated 1998).

For series [1] the following is noted: cited from earlier work.
A short description of series [2]: Solubility Comparison in water. Type of series: physicochemical. Particulars: for Water added: to dissolve 100 mg completely. The protocol:
(§1) The solubility of MBTH.HCl was compared with that of NaCMBTH. One hundred mg samples of each of MBTH.HCl (Aldrich) and NaCMBTH were placed into test tubes. Water was added in 50 μ-L aliquots until the sample completely dissolved.

Series [3] can be described thus: Solubility Comparison in pH 7 buffer. Particulars: for solubility: 0.1m phosphate buffer, aqueous buffer, pH 7 buffer (phosphate, 0.1M); for Water added: to dissolve 100 mg completely, pH 7 buffer (phosphate, 0.1M) instead of water. In kind it is physicochemical. How it is done: as §1
An identical experiment was performed using pH 7 buffer (phosphate, 0.1M) instead of water.

Series [4] is described as follows: Heat Stability on coated polyester fabric at 120° C. In kind it is physicochemical. Particulars: for Density: 120° C., absorbance at 310 nm. The protocol:
In order to evaluate the heat stability of sodium carboxy MBTH, 38 mg. of either MBTH.HCl or NaCMBTH was added to 1.2 mL water to dissolve. Then, 0.75 mL of this solution was added to 21 mg Hydrisel SX 660, a commercial surfactant and […] 0.1% ACP polymer (ISP Technologies), prepared in 70% isopropanol solution. Each solution was coated onto a 4-inch wide polyester fabric in a thin layer and dried at 40° C. for fifteen minutes. The coated fabric was sealed in an airtight foil bag and stored at 4° C.
Small samples (2 cm×5 cm) of each coated fabric were placed into a 120° C. oven and removed at appropriate intervals. The heat-stressed fabric samples were assayed spectrophotometrically.
The fabric samples were placed into a tared test tube and weighed. Ten mL of 20 mM phosphate buffer, pH 7.0, was added. The tubes were capped and agitated for ten minutes at room temperature. Absorbance at 310 nm was read for each sample and the values were compared against a standard curve.

Series [5] in a line: Relative Molar Extinction Coefficients (absorbance of dye formed with N-ethylanilinopropanamine, POD and H2O2). The settings on record: pH 6.5 phosphate buffer, same molar concentration, coupled with N-ethylanilinopropanamine hydrochloride. In kind it is physicochemical. How it is done: The relative absorbance of MBTH and sodium carboxy MBTH, an illustrative soluble hydrazone compound, was measured and compared. Since each compound was measured at the same molar concentration, the molar extinction was proportional to the […].
Each sample contained the following:
1 mL phosphate buffer, 0.035M, pH 6.5
10 μL R-MBTH solution, 10 mM, where R=H or COONa
100 μL N-ethylanilinopropanamine hydrochloride, 10 mM
10 μL POD solution, ~120 IU/mL
A 1-mL aliquot of each solution was transferred to a cuvette and diluted with an addition 2 mL of phosphate buffer solution.

Molecules are shown by their SMILES. Counter-ions that a name gives are not always drawn. Like-named read-outs stand apart in the source and are kept apart here.

Take `Cn1c(=NNS(=O)(=O)O)sc2ccccc21` [3-methyl-2-sulfonyl-benzothiazolononhydrazone]: the “solubility in water compared with MBTH” value in series [1] (U.S. Pat. No. 4,101,381) is “much poorer solubility in water than MBTH”.
One may read the solubility as the dissolved amount per volume that the medium holds. Low readings indicate a poorly soluble substance, high ones a readily soluble substance. As for `Cn1c(=NN)sc2ccccc21` [MBTH.HCl, 3-methyl benzothiazolone-2-hydrazone HCL], the “water solubility of the dye formed in the color reactions” value in series [1] is “relatively poor water solubility”. Moreover, the heat stability entry in series [1] (dry form, 60° C., as noted in U.S. Pat. No. 4,101,381) is “insufficiently stable”; in series [4] (after only two hours at 120° C.), “effectively decomposed”. Besides, the “usable pH (autoxidative color reaction otherwise)” value in series [1] (pH, absence of hydrogen peroxide) was “below 7”. In addition, the solubility is 34 mg/mL in series [2] and below 10 mg/mL in series [3]. Further, the results for the Water added in series [2] and in series [3] were 2900 µL and above 9600 µL, respectively. Moreover, the Density amounted to 114.7 mg/m^2 in series [4] (time 0) and 10.2 mg/m^2 in series [4] (time 4 (hours)). The “Absorbance at 600 nm” value in series [5] turned out to be 0.1513 absorbance units.
As to `Cn1c(=NN)sc2cc(C(=O)O)ccc21` [NaCMBTH, 3-methylbenzothiazolone-2-hydrazone-6-carboxylic acid, sodium salt], the solubility in series [2] is 87 mg/mL; in series [3], 174 mg/mL. Besides, the Water added was 1150 µL in series [2] and 575 µL in series [3]. The Density was found to be 75.4 mg/m^2 in series [4] (time 0), 50.4 mg/m^2 in series [4] (time 4 (hours)), 51.2 mg/m^2 in series [4] (time 6 (hours)) and 50.3 mg/m^2 in series [4] (time 23 (hours)). For the same molecule, the values for the heat stability entry in series [4] (after 23 hours at 120° C.) and in series [4] (after six hours at 120° C.) were “retains most of its activity” and “still viable”, respectively. Moreover, the “Absorbance at 600 nm” value in series [5] is on record as 0.2115 absorbance units.
